Reference: PMC4890124, “Antimicrobial activity, improved cell selectivity and mode of action of short PMAP-36-derived peptides against bacteria and Candida” (Scientific Reports, 2016)
Converted amounts (≈) assume the structure as drawn. Marks after values point to notes of the source that are not given here. Peptide text beside a SMILES is read from it.

Legend:
[1] = test system: C. albicans CA276 (clinical isolate); assay: microbe, parasite or virus in culture; format: cell-based, Candida albicans; settings: CA276 (clinical isolate, 48 h)
Description: (§1) The antifungal activities were monitored in RPMI-1640 broth medium by a 2-fold microdilution assay according to the Clinical and Laboratory Standards Institute (CLSI) methods. The Candida albicans CGMCC 2.2086, Candida tropicalis CGMCC 2.1975, and Candida krusei CGMCC 2.1857 fungal strains were purchased from the China General Microbiological Culture Collection Center (CGMCC, Beijing, China). Clinically isolated Candida albicans CA2761 was provided by the 4th Affiliated Hospital of Harbin Medical University. Briefly, fungal strains were cultured on YPD agar plates (1% peptone, 0.5% yeast extract, 1% glucose and 2% agar) at 28 °C to prepare Candida suspensions with a turbidity of a 0.5 McFarland standard. A total of 50 μl inoculum cell suspension diluted in RPMI-1640 broth medium was added to an equal volume of peptide solution to achieve a final peptide concentrations ranging from 0.25 μM to 128 μM in a 96-well plate. Pure broth alone or with inoculum suspensions was used as the negative control or the positive control, respectively. The plate was incubated at 28 °C for 48 h. MIC was considered the lowest concentration at which no fungal growth was visually observed under experimental conditions. […] After 48 h incubation at 28 °C, MFC was defined as the lowest concentration of peptides that killed at least 99.9% of the initial inoculums. Experiments were performed in triplicate with three biological replicates.

[2] = test system: Salmonella enterica serovar typhimurium C77-31; format: cell-based; settings: three independent experiments; for MBC S. typhi C77-31: lowest concentration killing at least 99.9% of initial inoculum
Method: (§2) The peptide antibacterial activity was determined against both gram-positive and gram-negative bacteria strains, including Escherichia coli ATCC 25922, Escherichia coli UB1005, Salmonella enterica serovar typhimurium C77-31, Staphylococcus aureus ATCC 29213, Staphylococcus aureus ATCC 25923, Bacillus subtilis CMCC 63501, and Staphylococcus epidermidis ATCC 12228. Clinically isolated Escherichia coli EC183 was provided by the 4th Affiliated Hospital of Harbin Medical University. MIC of the peptides was measured using a modified version of the National Committee for Clinical Laboratory Standards (NCCLS) broth microdilution method as described previously. The bacterial strains were inoculated and grown to mid-log phase in fresh Mueller-Hinton broth (MHB) at 37 °C. Bacterial inoculum suspensions were prepared at a final concentration of approximately 1 × 10^5 CFU/ml. Peptides were 2-fold serially diluted to make different concentrations, from 0.5 to 256 μM. Equal volumes of inoculum suspensions were then added to each well of a sterile 96-well plate with different concentrations of peptides, and the plate was incubated for 18 h at 37 °C. Broth with or without bacteria was employed as the positive control or the negative control, respectively. MIC was defined as the lowest concentration of peptides that prevented visible turbidity by visual inspection. […] After overnight incubation at 37 °C, MBC was defined as the lowest concentration of peptides that killed at least 99.9% of the initial inoculums. Experiments were performed in triplicate with three biological replicates.

[3] = test system: Staphylococcus aureus ATCC 29213; format: cell-based; settings: ATCC 29213, 18 h
Method: as §2

[4] = test system: Escherichia coli ATCC 25922; format: cell-based; settings: ATCC 25922, 18 h
Method: as §2

[5] = test system: Clinically isolated Escherichia coli EC183; format: cell-based; settings: Clinically isolated EC183, 18 h
Method: as §2

[6] = test system: Staphylococcus aureus ATCC 25923; format: cell-based; settings: ATCC 25923, 18 h
Method: as §2

[7] = test system: Bacillus subtilis CMCC 63501; format: cell-based; settings: CMCC 63501, 18 h
Method: as §2

Escherichia coli UB1005 = format: cell-based; settings: UB1005, 18 h
Method: as §2

[8] = test system: Staphylococcus epidermidis ATCC 12228; format: cell-based; settings: ATCC 12228, 18 h
Method: as §2

[9] = test system: Candida tropicalis CGMCC 2.1975; assay: microbe, parasite or virus in culture; format: cell-based; settings: CGMCC 2.1975, 48 h; for MFC: read-out: MFC C. tropicalis 2.1975; for MIC: read-out: MIC C. tropicalis 2.1975
Description: as §1

[10] = test system: Candida albicans CGMCC 2.2086; assay: microbe, parasite or virus in culture; format: cell-based; settings: CGMCC 2.2086, 48 h
Description: as §1

[11] = test system: Candida krusei CGMCC 2.1857; assay: microbe, parasite or virus in culture; format: cell-based; settings: CGMCC 2.1857, 48 h
Description: as §1

With CC[C@H](C)[C@H](NC(=O)[C@H](Cc1c[nH]c2ccccc12)NC(=O)[C@H](CCCCN)NC(=O)[C@H](CC(C)C)NC(=O)[C@@H](NC(=O)[C@H](CCCCN)NC(=O)CNC(=O)[C@@H](NC(=O)[C@H](CCCCN)NC(=O)[C@H](CCCCN)NC(=O)[C@H](CC(C)C)NC(=O)[C@H](CCCNC(=N)N)NC(=O)[C@H](CCCCN)NC(=O)[C@H](CCCNC(=N)N)NC(=O)[C@@H](NC(=O)[C@H](CCCCN)NC(=O)[C@H](CCCCN)NC(=O)[C@H](CCCNC(=N)N)NC(=O)[C@H](CC(C)C)NC(=O)[C@H](CCCNC(=N)N)NC(=O)[C@@H](N)CCCNC(=N)N)[C@@H](C)O)[C@@H](C)CC)C(C)C)C(N)=O [RI21] (H-RRLRKKTRKRLKKIGKVLKWI-NH2) the MFC [1] was 32 µM (≈ 86.5 µg/mL), the MIC [1] was 8 µM (≈ 21.6 µg/mL) and the “MIC S. typhi C77-31” value ([2]; broth microdilution, MHB, ~1 × 10^5 CFU/ml, 18 h at 37 °C, visual) was 1 µM (≈ 2.7 µg/mL). For the same compound, the “MBC S. typhi C77-31” value [2] was 2 µM (≈ 5.41 µg/mL), the MBC S. aureus 29213 [3] was 4 µM (≈ 10.8 µg/mL) and the MIC S. aureus 29213 [3] was 4 µM (≈ 10.8 µg/mL). For the same compound, the “MBC E. coli 25922” value [4] was 8 µM (≈ 21.6 µg/mL), the “MIC E. coli 25922” value [4] was 2 µM (≈ 5.41 µg/mL) and the “MBC E. coli EC183” value [5] was 2 µM (≈ 5.41 µg/mL). The “MIC E. coli EC183” value [5] was 1 µM (≈ 2.7 µg/mL), the MBC S. aureus 25923 [6] was 4 µM (≈ 10.8 µg/mL) and the MIC S. aureus 25923 [6] was 4 µM (≈ 10.8 µg/mL). For the same compound, the “MBC B. subtilis 63501” value [7] was 4 µM (≈ 10.8 µg/mL), the “MIC B. subtilis 63501” value [7] was 1 µM (≈ 2.7 µg/mL) and the MBC E. coli 1005 (Escherichia coli UB1005) was 2 µM (≈ 5.41 µg/mL). For the same compound, the MIC E. coli 1005 (Escherichia coli UB1005) was 2 µM (≈ 5.41 µg/mL), the “MBC S. epidermidis 12228” value [8] was 8 µM (≈ 21.6 µg/mL) and the “MIC S. epidermidis 12228” value [8] was 4 µM (≈ 10.8 µg/mL). It also gave an MFC [9] of 2 µM (≈ 5.41 µg/mL), an MIC [9] of 1 µM (≈ 2.7 µg/mL) and an MFC ([10]; read-out: MFC C. albicans 2.2086) of 16 µM (≈ 43.3 µg/mL). It also gave an MIC ([10]; read-out: MIC C. albicans 2.2086) of 8 µM (≈ 21.6 µg/mL), an MFC ([11]; read-out: MFC C. krusei 2.1857) of 4 µM (≈ 10.8 µg/mL) and an MIC ([11]; read-out: MIC C. krusei 2.1857) of 2 µM (≈ 5.41 µg/mL).

For CC[C@H](C)[C@H](NC(=O)[C@H](CCCCN)NC(=O)[C@H](CCCCN)NC(=O)[C@H](CC(C)C)NC(=O)[C@H](CCCNC(=N)N)NC(=O)[C@H](CCCCN)NC(=O)[C@H](CCCNC(=N)N)NC(=O)[C@@H](NC(=O)[C@H](CCCCN)NC(=O)[C@H](CCCCN)NC(=O)[C@H](CCCNC(=N)N)NC(=O)[C@H](CC(C)C)NC(=O)[C@H](CCCNC(=N)N)NC(=O)[C@H](CCCNC(=N)N)NC(=O)[C@H](Cc1ccccc1)NC(=O)[C@H](CCCNC(=N)N)NC(=O)CN)[C@@H](C)O)C(=O)NCC(=O)N[C@@H](CCCCN)C(=O)N[C@H](C(=O)N[C@@H](CC(C)C)C(=O)N[C@@H](CCCCN)C(=O)N[C@@H](Cc1c[nH]c2ccccc12)C(=O)N[C@H](C(=O)N1CCC[C@H]1C(=O)N1CCC[C@H]1C(=O)N[C@H](C(=O)N[C@H](C(=O)NCC(=O)N[C@@H](CO)C(=O)N[C@H](C(=O)N1CCC[C@H]1C(=O)N[C@@H](CC(C)C)C(=O)NCC(=O)N[C@@H](CS)C(=O)NCC(N)=O)[C@@H](C)CC)C(C)C)[C@@H](C)CC)[C@@H](C)CC)C(C)C [PMAP-36] (H-GRFRRLRKKTRKRLKKIGKVLKWIPPIVGSIPLGCG-NH2), the MFC C. albicans CA276 [1] was 128 µM (≈ 532 µg/mL), the MIC C. albicans CA276 [1] was 128 µM (≈ 532 µg/mL) and the “MBC S. typhi C77-31” value [2] was 2 µM (≈ 8.31 µg/mL). For the same compound, the “MBC S. aureus 29213” value [3] was 4 µM (≈ 16.6 µg/mL), the “MBC E. coli 25922” value [4] was 4 µM (≈ 16.6 µg/mL) and the MBC E. coli EC183 [5] was 1 µM (≈ 4.16 µg/mL). For the same compound, the MIC E. coli EC183 [5] was 1 µM (≈ 4.16 µg/mL), the “MBC S. aureus 25923” value [6] was 4 µM (≈ 16.6 µg/mL) and the “MBC B. subtilis 63501” value [7] was 1 (1) μM. The “MIC B. subtilis 63501” value [7] was 1 (1) μM, the “MBC E. coli 1005” value (Escherichia coli UB1005) was 2 ^c (2) μM and the “MBC S. epidermidis 12228” value [8] was 4 µM (≈ 16.6 µg/mL). It also gave an MFC [9] of 2 µM (≈ 8.31 µg/mL), an MIC [9] of 1 µM (≈ 4.16 µg/mL) and an MFC C. albicans 2.2086 [10] of 128 µM (≈ 532 µg/mL). It also gave an MIC C. albicans 2.2086 [10] of 128 µM (≈ 532 µg/mL), an MFC C. krusei 2.1857 [11] of 8 µM (≈ 33.3 µg/mL) and an MIC C. krusei 2.1857 [11] of 8 µM (≈ 33.3 µg/mL).
